Format in all cases: cell-based
Assay [1] has as its system E. cloacae P99. The assay is described as follows: MIC of compounds alone, broth microdilution. Conditions: Enterobacter cloacae; strain P99 (AmpC); read-out: MIC compounds of the invention alone. As to the method:
(§1) Compounds of the present invention were assessed against genotyped bacterial strains alone or in combination with the β-lactam ceftazidime (CAZ). […] Briefly, compounds alone according to the invention were prepared in DMSO and spotted (2 μL each) on sterile polystyrene plates (Corning, 3788). […] Log phase bacterial suspensions were adjusted to a final density of 5×10^5 cfu/mL in cation-adjusted Mueller-Hinton broth (Becton-Dickinson) and added to each well (98 μL). Microplates were incubated for 16-20 h at 35° C. in ambient air. The MIC of the compounds was defined as the lowest concentration of said compounds that prevented bacterial growth as read by visual inspection.
On the technique in general: Broth dilution looks for growth in wells or tubes with falling amounts of substance.

The test system of assay [2] is E. coli 190317. The assay is described as follows: MIC of compounds alone, broth microdilution. Conditions: Escherichia coli; strain 190317 (TEM-1, SHV-12, CTX-M-15, OXA-1); read-out: MIC compounds of the invention alone. How it is done:
as §1

The next assay deals with E. coli RGN238. The assay is described as follows: MIC of compounds alone, broth microdilution. The note with it: Escherichia coli, RGN238, read-out: MIC compounds of the invention alone. As to the method: as §1
For a further assay, the system named is P. aeruginosa CIP107051. The assay is described as follows: MIC of compounds alone, broth microdilution. Conditions: Pseudomonas aeruginosa; strain CIP107051 (TEM-24); read-out: MIC compounds of the invention alone. How it is done: as §1
The subject of the next assay is K. pneumoniae 6299. Description: microbe, parasite or virus in culture. Conditions: Klebsiella pneumoniae, 6299, read-out: MIC compounds of the invention alone. In outline: (§2)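 DMSO solutions of compound were dispensed into wells, then log-phase bacteria added to a final 5×10^5 cfu/mL in cation-adjusted Mueller-Hinton broth. After 16-20 h at 35° C in ambient air, the lowest concentration without visible growth was recorded as MIC.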

Another assay concerns K. pneumoniae BAA-1898. The assay is described as follows: microbe, parasite or virus in culture. Conditions: Klebsiella pneumoniae, BAA1898, read-out: MIC compounds of the invention alone. Put shortly:
as §2

The subject of a further assay is P. aeruginosa CIP105250. The assay is described as follows: microbe, parasite or virus in culture. The note with it: Pseudomonas aeruginosa, CIP105250, read-out: MIC compounds of the invention alone. Put shortly: as §2
For another assay, the system named is E. cloacae 260508. Description: MIC of ceftazidime alone and in combination with compounds (synergy), broth microdilution. Conditions: MIC of ceftazidime with compound fixed at 4 μg/mL; strain 260508 (TEM-1, CTX-M-15).
Another assay concerns E. coli UFR61O. The assay is described as above. Conditions: MIC of ceftazidime with compound fixed at 4 μg/mL; strain UFR61O (TEM-1, KPC-2).
For a further assay, the system named is K. pneumoniae 160143. The assay is described as above. Conditions: MIC of ceftazidime with compound fixed at 4 μg/mL; strain 160143 (TEM-1, SHV-1, CTX-M-15, KPC-2, OXA-1).
For assay [3], the system named is E. cloacae P99. The assay is described as above. Conditions: MIC of ceftazidime with compound fixed at 4 μg/mL; strain P99 (AmpC).
In a further assay the test system is E. cloacae UFR85. The description is as above. The note with it: MIC of ceftazidime with compound fixed at 4 μg/mL; strain UFR85 (TEM-1, CTX-M-15, derepressed AmpC).
Assay [4] deals with E. cloacae UFR70. Described as above. Conditions: MIC of ceftazidime with compound fixed at 4 μg/mL; strain UFR70 (TEM-1, CTX-M-15, CMY-2, OXA-1, Porin loss).
The next assay has as its system K. oxytoca UFR21. The description is as above. Conditions: MIC of ceftazidime with compound fixed at 4 μg/mL; strain UFR21 (TEM-1, CTX-M-15, OXA-48).
The next assay deals with K. pneumoniae 200047. Described as above. Conditions: MIC of ceftazidime with compound fixed at 4 μg/mL; strain 200047 (TEM-1, SHV-32, CTX-M-15, OXA-1).
The test system of assay [5] is E. coli 190317. The description is as above. Conditions: MIC of ceftazidime with compound fixed at 4 μg/mL; strain 190317 (TEM-1, SHV-12, CTX-M-15, OXA-1).
For a further assay, the system named is E. cloacae UFR38. Description: MIC of compounds alone, broth microdilution. The note with it: Enterobacter cloacae; strain UFR38 (CTX-M-15, NDM-1); read-out: MIC compounds of the invention alone. As to the method:
as §1

Assay [6] deals with E. cloacae UFR70. The assay is described as follows: MIC of compounds alone, broth microdilution. The note with it: Enterobacter cloacae, UFR70, read-out: MIC compounds of the invention alone. How it is done:
as §1

Another assay relates to E. coli UFR32. The assay is described as follows: MIC of compounds alone, broth microdilution. The note with it: Escherichia coli, UFR32, read-out: MIC compounds of the invention alone. As to the method: as §1
For a further assay, the system named is P. aeruginosa UFR35. Description: MIC of ceftazidime alone and in combination with compounds (synergy), broth microdilution. The note with it: MIC of ceftazidime with compound fixed at 4 μg/mL; strain UFR35 (OXA-23). Put shortly: as §2
The next assay deals with P. aeruginosa UFR48. Described as above. The note with it: MIC of ceftazidime with compound fixed at 4 μg/mL; strain UFR48 (VIM-2). Put shortly: as §2
In the next assay the test system is P. aeruginosa UFR90. The assay is described as above. The note with it: MIC of ceftazidime with compound fixed at 4 μg/mL; strain UFR90 (derepressed AmpC, OprD−). In outline:
as §2

The subject of another assay is P. aeruginosa UFR92. The description is as above. The note with it: MIC of ceftazidime with compound fixed at 4 μg/mL; strain UFR92 (derepressed AmpC, OprD−). In outline:
as §2

The next assay concerns C. murliniae 210102. Described as above. Conditions: MIC of ceftazidime with compound fixed at 4 μg/mL; strain 210102 (VIM-4).
The subject of a further assay is P. aeruginosa UFR93. The assay is described as above. Conditions: MIC of ceftazidime with compound fixed at 4 μg/mL; strain UFR93 (derepressed AmpC, OprD−, MexAB+, MexXY+).
In another assay the test system is P. aeruginosa UFR47. The description is as above. The note with it: MIC of ceftazidime with compound fixed at 4 μg/mL; strain UFR47 (VIM-1).
For another assay, the system named is P. aeruginosa UFR59. The description is as above. Conditions: MIC of ceftazidime with compound fixed at 4 μg/mL; strain UFR59 (IMP-29).

This is an account of results in US10570131B2, “Heterocyclic compounds and their use in preventing or treating bacterial infections” (MUTABILIS, priority 2015, dated 2020).

Counter-ions that a name gives are not always drawn.

For `CNC(=O)CON=C1C[C@@H](C(N)=O)N2C[C@@H]1N(OS(=O)(=O)[O-])C2=O.[Na+]` (mixture of isomers) [Example 2, sodium [(2S,5S)-2-carbamoyl-4-[2-(methylamino)-2-oxo-ethoxy]imino-7-oxo-1,6-diazabicyclo[3.2.1]octan-6-yl] sulfate], the MIC in the assay with E. cloacae P99 [1] was > 32 µg/mL; in the assay on E. coli 190317 [2] it was 4 µg/mL; in the assay with E. coli RGN238 it was > 32 µg/mL; in the assay with P. aeruginosa CIP107051, > 32 µg/mL; in the assay with K. pneumoniae 6299, > 32 µg/mL; in the assay on K. pneumoniae BAA-1898 it was > 32 µg/mL. Besides, the MIC in the assay with P. aeruginosa CIP105250 was > 32 µg/mL. Besides, the “MIC, combination of CAZ and compounds of the invention at 4 μg/mL” value (shortened to “MIC, combination”) in the assay on E. cloacae 260508 is 1 µg/mL; in the assay on E. coli UFR61O, 0.5 µg/mL; in the assay on K. pneumoniae 160143 it was 8 µg/mL; with E. cloacae P99 [3], 4 µg/mL; in the assay on E. cloacae UFR85 it was 1 µg/mL; with E. cloacae UFR70 [4] it was 8 µg/mL. Further, the results for the “MIC, combination” value in the assay on K. oxytoca UFR21, with K. pneumoniae 200047 and in the assay with E. coli 190317 [5] were 2 µg/mL, 0.5 µg/mL and ≤0.125 µg/mL, respectively.

Regarding `NC[C@@H]1CC(=NOCC(N)=O)[C@@H]2CN1C(=O)N2OS(=O)(=O)O` (mixture of isomers) [Example 5, sodium and 2,2,2-trifluroacetate [(2S,5S)-4-(2-amino-2-oxo-ethoxy)imino-2-(azaniumylmethyl)-7-oxo-1,6-diazabicyclo[3.2.1]octan-6-yl] sulfate], the MIC in the assay with E. cloacae P99 [1] is 0.063 µg/mL; in the assay on E. cloacae UFR38, 0.125 µg/mL; with E. cloacae UFR70 [6], > 32 µg/mL; in the assay on E. coli 190317 [2], 0.25 µg/mL; in the assay with E. coli RGN238, > 32 µg/mL; in the assay on E. coli UFR32, 1 µg/mL. Besides, the MIC was 4 µg/mL in the assay on P. aeruginosa CIP107051, > 32 µg/mL with K. pneumoniae 6299, > 32 µg/mL with K. pneumoniae BAA-1898 and 32 µg/mL in the assay with P. aeruginosa CIP105250. Further, the “MIC, combination” value with E. cloacae 260508 was <0.25 µg/mL; in the assay on E. coli UFR61O, <0.25 µg/mL; in the assay on K. pneumoniae 160143, 0.5 µg/mL; in the assay with E. cloacae P99 [3] it was <0.25 µg/mL; with E. cloacae UFR85, ≤0.25 µg/mL; with E. cloacae UFR70 [4] it was 1 µg/mL. The “MIC, combination” value was <0.25 µg/mL with P. aeruginosa UFR35; <0.25 µg/mL in the assay with P. aeruginosa UFR48; <0.25 µg/mL in the assay with P. aeruginosa UFR90; <0.25 µg/mL in the assay on P. aeruginosa UFR92; ≤0.25 µg/mL in the assay with K. oxytoca UFR21; ≤0.25 µg/mL in the assay with K. pneumoniae 200047. Also, the “MIC, combination” value in the assay with E. coli 190317 [5] was <0.25 µg/mL; with C. murliniae 210102, 1 µg/mL; in the assay on P. aeruginosa UFR93, <0.25 µg/mL; with P. aeruginosa UFR47 it was <0.25 µg/mL; with P. aeruginosa UFR59 it was <0.25 µg/mL.

As to `NC[C@@H]1CC(=O)[C@@H]2CN1C(=O)N2OS(=O)(=O)O` [Example 6, 2,2,2-trifluroacetate and sodium [(2S,5S)-2-(azaniumylmethyl)-4,7-dioxo-1,6-diazabicyclo[3.2.1]octan-6-yl] sulfate], the MIC in the assay with E. cloacae P99 [1] is 1 µg/mL; with E. cloacae UFR38, 0.5 µg/mL; with E. cloacae UFR70 [6], > 32 µg/mL; in the assay on E. coli 190317 [2], 1 µg/mL; in the assay on E. coli RGN238, > 32 µg/mL; in the assay with E. coli UFR32, 1 µg/mL. Also, the MIC in the assay with P. aeruginosa CIP107051 was 8 µg/mL; with K. pneumoniae 6299, > 32 µg/mL; with K. pneumoniae BAA-1898, > 32 µg/mL; with P. aeruginosa CIP105250 it was 16 µg/mL. In addition, the “MIC, combination” value with E. cloacae 260508 is ≤0.25 µg/mL; with E. coli UFR61O, 1 µg/mL; in the assay on K. pneumoniae 160143 it was 2 µg/mL; in the assay with E. cloacae P99 [3], <0.25 µg/mL; in the assay on E. cloacae UFR85, ≤0.25 µg/mL; in the assay on E. cloacae UFR70 [4], 2 µg/mL. Further, the “MIC, combination” value in the assay with P. aeruginosa UFR35 was <0.25 µg/mL; with P. aeruginosa UFR48 it was ≤0.25 µg/mL; in the assay on P. aeruginosa UFR90, <0.25 µg/mL; in the assay with P. aeruginosa UFR92, ≤0.25 µg/mL; with K. oxytoca UFR21, ≤0.25 µg/mL; in the assay with K. pneumoniae 200047, 1 µg/mL. Besides, the “MIC, combination” value was <0.25 µg/mL in the assay on E. coli 190317 [5]; 4 µg/mL with C. murliniae 210102; 0.5 µg/mL with P. aeruginosa UFR93; ≤0.25 µg/mL with P. aeruginosa UFR47; ≤0.25 µg/mL with P. aeruginosa UFR59.
